Data taken from article PMC6061170, “Synthesis and biological investigations of 3β-aminotropane arylamide derivatives with atypical antipsychotic profile” (Medicinal Chemistry Research, 2018).
Where a name gives a salt, the structure may show the parent alone. Read-outs that look alike come from different tables or passages of the source.

Key:
[1] = molecular target: dopamine D2 receptors (Rattus norvegicus, UniProt P61169); assay: Radioligand binding assay, D2 receptors
[2] = molecular target: T1, serotonin 5-HT1A receptors (Rattus norvegicus, UniProt P19327); assay: Radioligand binding assay, 5-HT1A receptors
T1 construct: from tissue; host or cells: rat brain tissues
T1 sequence (P19327 1-422): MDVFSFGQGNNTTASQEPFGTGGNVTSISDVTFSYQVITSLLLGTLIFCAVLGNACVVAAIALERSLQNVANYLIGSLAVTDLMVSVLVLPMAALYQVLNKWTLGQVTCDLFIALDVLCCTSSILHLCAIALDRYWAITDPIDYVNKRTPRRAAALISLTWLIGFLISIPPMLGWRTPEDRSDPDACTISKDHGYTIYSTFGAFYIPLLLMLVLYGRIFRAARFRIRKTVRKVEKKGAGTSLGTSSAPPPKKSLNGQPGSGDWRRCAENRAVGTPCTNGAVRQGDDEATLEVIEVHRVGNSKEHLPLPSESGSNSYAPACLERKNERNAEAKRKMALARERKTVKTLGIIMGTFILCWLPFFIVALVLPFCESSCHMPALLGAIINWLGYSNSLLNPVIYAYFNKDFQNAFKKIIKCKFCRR
Description: All compounds were tested for their affinities for 5-HT1A, 5-HT2A, and D2 receptors according to previously described procedures (Stefanowicz et al. [2016]).
Competition binding studies were performed according to a previously described procedure in rat brain tissues (Stefanowicz et al. [2016]).

[3] = molecular target: T2, serotonin 5-HT2A receptors (Rattus norvegicus, UniProt P14842); assay: Radioligand binding assay, 5-HT2A receptors
T2 construct: from tissue; host or cells: rat brain tissues

[4] = tested on: Albino Swiss mice; assay: Forced swim test; conditions: last 4 min of session
[5] = tested on: Albino Swiss mice; assay: Four-plate test; conditions: 60 min before test
[6] = rat brain tissues, read-out: D2 IC50 [nM] ± SEM
[7] = rat brain tissues, read-out: D2 Ki [nM] ± SEM
[8] = rat brain tissues, read-out: 5-HT1A IC50 [nM] ± SEM
[9] = rat brain tissues, read-out: 5-HT1A Ki [nM] ± SEM
[10] = rat brain tissues, read-out: 5-HT2A IC50 [nM] ± SEM
[11] = rat brain tissues, read-out: 5-HT2A Ki [nM] ± SEM

T2 sequence (P14842 whole entry): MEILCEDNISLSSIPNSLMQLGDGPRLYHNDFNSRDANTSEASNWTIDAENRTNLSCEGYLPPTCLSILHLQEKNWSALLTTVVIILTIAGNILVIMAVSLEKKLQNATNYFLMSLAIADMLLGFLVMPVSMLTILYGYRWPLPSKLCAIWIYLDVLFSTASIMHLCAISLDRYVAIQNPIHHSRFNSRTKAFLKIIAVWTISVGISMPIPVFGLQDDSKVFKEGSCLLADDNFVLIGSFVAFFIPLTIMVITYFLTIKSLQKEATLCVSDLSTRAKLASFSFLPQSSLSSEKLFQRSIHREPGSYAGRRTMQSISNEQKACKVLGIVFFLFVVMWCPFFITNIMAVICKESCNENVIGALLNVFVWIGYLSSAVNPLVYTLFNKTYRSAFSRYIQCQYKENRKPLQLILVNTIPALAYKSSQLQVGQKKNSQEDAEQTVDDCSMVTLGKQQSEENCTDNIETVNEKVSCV
Sequence of dopamine D2 receptors (P61169 1-415 isoform P61169-2): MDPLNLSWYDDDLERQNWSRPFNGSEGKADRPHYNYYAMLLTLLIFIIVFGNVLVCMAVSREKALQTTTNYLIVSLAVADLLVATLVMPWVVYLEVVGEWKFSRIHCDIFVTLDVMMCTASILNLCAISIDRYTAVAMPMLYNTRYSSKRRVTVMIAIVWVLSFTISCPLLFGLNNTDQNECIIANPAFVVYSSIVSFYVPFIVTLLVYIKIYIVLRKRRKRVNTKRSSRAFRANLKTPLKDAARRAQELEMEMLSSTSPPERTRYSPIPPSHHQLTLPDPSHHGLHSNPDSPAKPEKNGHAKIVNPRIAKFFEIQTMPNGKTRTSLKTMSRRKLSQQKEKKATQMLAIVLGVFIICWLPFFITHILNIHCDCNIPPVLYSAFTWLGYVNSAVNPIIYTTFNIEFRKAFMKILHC

SMILES | IC50 [1, 6] [nM] | Ki [1, 7] [nM] | IC50 [2, 8] [nM] | Ki [2, 9] [nM] | IC50 [3, 10] [nM] | Ki [3, 11] [nM] | melting point [°C] | Ki [2] [nM] | Ki [1] [nM] | Immobility time (s) Mean ± SEM ([4]; 5 mg/kg i.p. 30 min before test) [s] | Immobility time (s) Mean ± SEM ([4]; 20 mg/kg i.p. 30 min before test) | IC50 [1] [nM] | IC50 [2] [nM] | IC50 [3] [nM] | Ki [3] [nM] | Number of punished crossings /1 min Mean ± SEM ([5]; diazepam 1.25 mg/kg) | Number of punished crossings /1 min Mean ± SEM ([5]; diazepam 2.5 mg/kg) | Number of punished crossings /1 min Mean ± SEM ([5]; diazepam 5 mg/kg)
O=C(NC1CC2CCC(C1)N2Cc1ccccn1)c1cnc2ccccc2c1 (stereo not drawn) [Compound 12m] | > 10000 | > 10000 | 850 ± 135 | 283 ± 45 | > 10000 | > 10000 | 169.4 to 170.5 |  |  |  |  |  |  |  |  |  |  | 
Cc1ccccc1CN1C2CCC1CC(NC(=O)c1cnc3ccccc3c1)C2 (stereo not drawn) [Compound 12b] | 1630 ± 23 | 326 ± 4.5 | 244 ± 14.9 |  | 3780 ± 348 | 1030 ± 94 | 179.2 to 180.2 | 81.5 ± 5 |  |  |  |  |  |  |  |  |  | 
Cc1ccc(CN2C3CCC2CC(NC(=O)c2ccc4ccccc4n2)C3)cc1 (stereo not drawn) (as salt: oxalate) [Compound 12i, N-[8-(4-methylbenzyl)-8-azabicyclo[3.2.1]oct-3β-yl)]-quinoline-2-carboxamide oxalate] |  |  |  |  |  |  | 215 to 215.4 |  |  |  |  |  |  |  |  |  |  | 
Nc1cccc(CN2C3CCC2CC(NC(=O)c2ccc4ccccc4c2)C3)c1 (stereo not drawn) [Compound 19b] | 1560 ± 19.9 | 312 ± 3.9 | 862 ± 49.5 | 286 ± 16.4 | 766 ± 48.4 | 208 ± 13.2 | 165.4 to 166.6 |  |  |  |  |  |  |  |  |  |  | 
Cc1ccc(CN2C3CCC2CC(NC(=O)c2cnc4ccccc4c2)C3)cc1 (stereo not drawn) [Compound 12j] | 227 ± 37.6 |  | 493 ± 44.5 | 164 ± 15 | > 10000 | > 10000 | 219.5 to 220.8 |  | 45.3 ± 7.5 |  |  |  |  |  |  |  |  | 
Cc1cccc(CN2C3CCC2CC(NC(=O)c2cnc4ccccc4c2)C3)c1 (stereo not drawn) [Compound 12f] | 2730 ± 202 | 546 ± 40.2 | 255 ± 9.6 |  | 5290 ± 148 | 1440 ± 40.5 | 194 to 194.7 | 84.5 ± 3.4 |  |  |  |  |  |  |  |  |  | 
CN(C)CCCN1c2ccccc2CCc2ccccc21 [Imipramine, reference compound] |  |  |  |  |  |  |  |  |  | 170.42 ± 10.9 | 77.81 ± 12.2; p < 0.001 F(3,36) = 16.7570; p < 0.0001 s |  |  |  |  |  |  | 
O=C(NC1CC2CCC(C1)N2Cc1ccncc1)c1cnc2ccccc2c1 (stereo not drawn) [Compound 12u] |  |  |  |  |  |  | 69.5 to 72 | > 10000 | > 10000 |  |  | > 10000 | > 10000 | 4528 ± 22.5 | 1229 ± 6 |  |  | 
COc1cc(C(=O)NC2CC3CCC(C2)N3Cc2ccccn2)nc2ccccc12 (stereo not drawn) [Compound 12o] | > 10000 | > 10000 | 453 ± 12.6 | 151 ± 4.1 | > 10000 | > 10000 | 132.5 to 133 |  |  |  |  |  |  |  |  |  |  | 
CN1C(=O)CN=C(c2ccccc2)c2cc(Cl)ccc21 [Diazepam, reference compound] |  |  |  |  |  |  |  |  |  |  |  |  |  |  |  | 5.8 ± 0.3; p < 0.01 crossings/1 min | 6.4 ± 0.5; p < 0.01 crossings/1 min | 6.6 ± 0.4; p < 0.05 F(3,36) = 6.455; p < 0.01 crossings/1 min
Cc1ccccc1CN1C2CCC1CC(NC(=O)c1ccc3ccccc3n1)C2 (stereo not drawn) [Compound 12a] | 263 ± 20.5 |  | 140 ± 6.7 |  | > 10000 | > 10000 | 120.8 to 121.4 | 46.6 ± 2.2 | 52 ± 4 |  |  |  |  |  |  |  |  | 
COc1cc(C(=O)NC2CC3CCC(C2)N3Cc2cccnc2)nc2ccccc12 (stereo not drawn) [Compound 12s] | > 10000 | > 10000 | 3750 ± 264 | 1250 ± 88 | > 10000 | > 10000 | 162.6 to 165.5 |  |  |  |  |  |  |  |  |  |  | 
Cc1ccc(CN2C3CCC2CC(NC(=O)c2ccc4ncccc4c2)C3)cc1 (stereo not drawn) [Compound 12k] | 172 ± 5 |  | 1530 ± 58 | 511 ± 19 | > 10000 | > 10000 | 211.9 to 213 |  | 34.2 ± 0.8 |  |  |  |  |  |  |  |  | 
O=C(NC1CC2CCC(C1)N2Cc1cccnc1)c1ccc2ncccc2c1 (stereo not drawn) [Compound 12r] |  |  |  |  |  |  | 158.3 to 162.5 | > 10000 | > 10000 |  |  | > 10000 | > 10000 | > 10000 | > 10000 |  |  | 
O=C(NC1CC2CCC(C1)N2Cc1ccncc1)c1ccc2ccccc2n1 (stereo not drawn) [Compound 12t] | > 10000 | > 10000 | 2430 ± 31 | 809 ± 10.5 | > 10000 | > 10000 | 143 to 145.7 |  |  |  |  |  |  |  |  |  |  | 
O=C(NC1CC2CCC(C1)N2Cc1ccccn1)c1ccc2ncccc2c1 (stereo not drawn) [Compound 12n] |  |  |  |  |  |  | 193.7 to 194.5 | > 10000 | > 10000 |  |  | > 10000 | > 10000 | > 10000 | > 10000 |  |  | 
Cc1ccccc1CN1C2CCC1CC(NC(=O)c1ccc3ncccc3c1)C2 (stereo not drawn) [Compound 12c] | 1270 ± 63 | 254 ± 12.8 | 1350 ± 159 | 450 ± 53 | > 10000 | > 10000 | 211.4 to 212.7 |  |  |  |  |  |  |  |  |  |  | 
Nc1ccc(CN2C3CCC2CC(NC(=O)c2ccc4ccccc4c2)C3)cc1 (stereo not drawn) [Compound 19c] | 682 ± 42.7 | 136 ± 8.5 | 4040 ± 469 | 1340 ± 156 | 4580 ± 199 | 1240 ± 54 | 201.6 to 208.8 |  |  |  |  |  |  |  |  |  |  | 
COc1cc(C(=O)NC2CC3CCC(C2)N3Cc2ccncc2)nc2ccccc12 (stereo not drawn) [Compound 12w] | > 10000 | > 10000 | 942 ± 52.9 | 314 ± 18 | > 10000 | > 10000 | 52 to 55 |  |  |  |  |  |  |  |  |  |  | 
O=C(NC1CC2CCC(C1)N2Cc1ccccn1)c1ccc2ccccc2n1 (stereo not drawn) [Compound 12l] | 3080 ± 350 | 616 ± 70.3 | 665 ± 14.3 | 221 ± 4.7 | > 10000 | > 10000 | 150.2 to 151 |  |  |  |  |  |  |  |  |  |  | 
O=C(NC1CC2CCC(C1)N2Cc1ccncc1)c1ccc2ncccc2c1 (stereo not drawn) [Compound 12v] |  |  |  |  |  |  | 182 to 183.3 | > 10000 | > 10000 |  |  | > 10000 | > 10000 | > 10000 | > 10000 |  |  | 
O=C(NC1CC2CCC(C1)N2Cc1cccnc1)c1cnc2ccccc2c1 (stereo not drawn) [Compound 12q] |  |  |  |  |  |  | 138.3 to 146.2 | > 10000 | > 10000 |  |  | > 10000 | > 10000 | > 10000 | > 10000 |  |  | 
O=C(NC1CC2CCC(C1)N2Cc1cccnc1)c1ccc2ccccc2n1 (stereo not drawn) [Compound 12p] | 5440 ± 1030 | 1090 ± 205 | 3250 ± 122 | 1080 ± 40.5 | > 10000 | > 10000 | 143 to 143.4 |  |  |  |  |  |  |  |  |  |  | 
Cc1cccc(CN2C3CCC2CC(NC(=O)c2ccc4ncccc4c2)C3)c1 (stereo not drawn) [Compound 12g] | 1370 ± 81.8 | 275 ± 16.5 | 867 ± 29.7 | 289 ± 9.9 | > 10000 | > 10000 | 174.4 to 175.5 |  |  |  |  |  |  |  |  |  |  | 
